Results on 2 substances are retold here after patent US7919673B2, “Transgenic pig with altered incretin function” (Ludwig-Maximilians-Universitat, priority 2008, dated 2011).

For assay [1], the system named is GIPR^dn transgenic (tg) and control (wt) pigs. Description: GIP/Exendin-4 stimulation test in 7-months-old (28-36 weeks) pigs. The note with it: 28- to 36-week-old; for insulin secretion compared to glucose administration alone: 10 pmol/kg BW Exendin-4 i.v. 3 min after i.v. glucose, p<0.05. It is filed as in vivo, pig. The source says: (§1) For the oral glucose tolerance test (OGTT), one central venous catheter (Cavafix® Certo®, B. Braun, Melsungen, Germany) was inserted non-surgically into the external jugular vein under general anesthesia according to the manufacturer's instructions. For accomplishment of the GIP/Exendin-4 stimulation test as well as the intravenous glucose tolerance test, two central venous catheters (Cavafix® Certo®, B. Braun) were surgically inserted into the external jugular vein under general anesthesia using a modified method of Moritz et al. (24). At the start of the study period, all animals had fully recovered from the surgical procedure as evaluated by normal behavior and food intake.
(§2) The OGTT was performed in 11-week old and 5-month-old non-restrained, freely moving animals. After an 18-h overnight fast, animals were fed 2 g/kg BW glucose (25) mixed with 100 g of commercial pig fodder (Deuka primo care in 11-week-old pigs; Deuka porfina U in 5-month-old pigs; Deuka, Düsseldorf, Germany). The meal was eaten from a bowl under supervision. Blood samples were obtained from the jugular vein catheter at −10, 0, 15, 30, 45, 60, 90 and 120 minutes relative to the glucose load in 11-week-old pigs and at −15, −5, 0, 15, 30, 45, 60, 90, 120, 150 and 180 minutes relative to the glucose load in 5-month-old pigs. Serum glucose levels were determined using an AU 400 autoanalyzer (Olympus, Hamburg, Germany) while serum insulin levels were measured in duplicate using a porcine insulin radioimmunoassay (RIA) kit (Millipore, Billerica, USA) according to the manufacturer's instructions.
(§3) The GIP/Exendin-4 stimulation test was performed in 10- to 13-week old and 7-months-old (28-36 weeks) non-restrained freely moving animals. In 7-months-old animals, 0.5 g glucose/kg BW were administered intravenously as a bolus of concentrated 50% glucose solution following an 18-hour fasting period (26). After three minutes 20 pmol/kg BW of synthetic porcine GIP (Bachem, Weil am Rhein, Germany) or 10 pmol/kg BW of synthetic Exendin-4 (Bachem) were administered intravenously. Blood samples were collected −15, 0, 1, 3, 6, 9, 11, 13, 18, 23, 28, 33, 48 and 60 minutes relative to the glucose load. In 10- to 13-week-old animals, 0.5 g glucose/kg BW were administered intravenously as a bolus of concentrated 50% glucose solution following an 18-hour fasting period (26). Right after glucose administration 80 pmol/kg BW of synthetic porcine GIP (Bachem, Weil am Rhein, Germany) or 40 pmol/kg BW of synthetic Exendin-4 (Bachem) were administered intravenously. […]
(§4) All data are presented as means±SEM. […] Data from the GIP/Exendin-4 stimulation tests in 10- to 13-week-old animals as well as from proliferation index (Ki67 immunohistochemistry) were analyzed using ANOVA (analysis of variance) (SAS). […]

For assay [2] the test system is unchanged. Description: GIP/Exendin-4 stimulation test in 10- to 13-week-old pigs. Conditions: for insulinotropic effect in GIPR^dn transgenic pigs compared to controls: 10- to 13-week-old (eleven-week-old) pigs, intravenously administrated with glucose. It is filed as in vivo, pig.
Source text: as §1, §2, §3, §4

“Also recorded” adds a separate entry of the source.

On to Exendin-4, for which the “insulin secretion compared to glucose administration alone” value in assay [1] (GIPR^dn transgenic pigs) is reported as “significant stimulation; also recorded: significant increase”; in assay [1] (control pigs) it was “significant increase”. Besides, in assay [2], the “insulinotropic effect in GIPR^dn transgenic pigs compared to controls” value is “enhanced”. For the same substance, in assay [2] (10- to 13-week-old pigs, 40 pmol/kg BW Exendin-4 i.v. together with 0.5 g/kg i.v. glucose, p<0.01), the “insulin secretion in GIPR^dn transgenic pigs compared to controls” value was “increased insulin secretion; also recorded: significantly higher increase”.

“glucose-dependent insulinotropic polypeptide [GIP]”: in assay [1] (GIPR^dn transgenic pigs, 20 pmol/kg BW GIP i.v. 3 min after 0.5 g/kg i.v. glucose, glucose alone 7 μU/ml), the “increase in glucose-induced insulin concentration (Δ insulin)” value amounted to 11 μU/ml. Moreover, the “increase in i.v. glucose-induced serum insulin concentration (Δ insulin)” value in assay [1] (control (wt) pigs, 20 pmol/kg BW GIP i.v. 3 min after 0.5 g/kg i.v. glucose, glucose alone 27 μU/ml) amounted to 58 μU/ml. The “insulinotropic effect in GIPR^dn transgenic pigs compared to controls” value in assay [2] is reported as “blunted; also recorded: impaired”. Also, the “serum insulin levels in control pigs compared to GIPR^dn transgenic pigs” value in assay [2] (10- to 13-week-old pigs, 80 pmol/kg BW GIP i.v. together with 0.5 g/kg i.v. glucose) is given as “significantly (p<0.01) higher insulin levels”.
